Measurements taken from publication PMC8617627, “Novel DYRK1A Inhibitor Rescues Learning and Memory Deficits in a Mouse Model of Down Syndrome” (Pharmaceuticals, 2021).
Like-named read-outs stand apart in the source and are kept apart here.

Experiments:
Experiment in all cases: Kinase profile (33P ATP filter binding)
Assay type in all cases: biochemical
MAPKAP-K3 = MAPKAP-K3 (Homo sapiens, UniProt Q16644); conditions: read-out: Remaining protein kinase activity
p38g MAPK = target: T1, p38g MAPK (Homo sapiens, UniProt P53778); conditions: read-out: Remaining protein kinase activity
T1 sequence (P53778 1-367): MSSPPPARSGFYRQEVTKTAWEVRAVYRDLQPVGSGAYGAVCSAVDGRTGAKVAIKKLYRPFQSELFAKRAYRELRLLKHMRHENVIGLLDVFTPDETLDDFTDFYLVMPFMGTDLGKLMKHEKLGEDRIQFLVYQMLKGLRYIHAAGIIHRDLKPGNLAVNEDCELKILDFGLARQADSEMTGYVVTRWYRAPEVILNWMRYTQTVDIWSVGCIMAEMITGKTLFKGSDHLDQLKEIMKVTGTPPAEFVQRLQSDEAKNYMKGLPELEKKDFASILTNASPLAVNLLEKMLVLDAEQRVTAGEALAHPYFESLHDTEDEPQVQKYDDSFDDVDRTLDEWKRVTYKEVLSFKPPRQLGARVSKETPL

MAP4K3 = target: T2, MAP4K3 (Homo sapiens, UniProt Q8IVH8)
T2 sequence (Q8IVH8 1-894): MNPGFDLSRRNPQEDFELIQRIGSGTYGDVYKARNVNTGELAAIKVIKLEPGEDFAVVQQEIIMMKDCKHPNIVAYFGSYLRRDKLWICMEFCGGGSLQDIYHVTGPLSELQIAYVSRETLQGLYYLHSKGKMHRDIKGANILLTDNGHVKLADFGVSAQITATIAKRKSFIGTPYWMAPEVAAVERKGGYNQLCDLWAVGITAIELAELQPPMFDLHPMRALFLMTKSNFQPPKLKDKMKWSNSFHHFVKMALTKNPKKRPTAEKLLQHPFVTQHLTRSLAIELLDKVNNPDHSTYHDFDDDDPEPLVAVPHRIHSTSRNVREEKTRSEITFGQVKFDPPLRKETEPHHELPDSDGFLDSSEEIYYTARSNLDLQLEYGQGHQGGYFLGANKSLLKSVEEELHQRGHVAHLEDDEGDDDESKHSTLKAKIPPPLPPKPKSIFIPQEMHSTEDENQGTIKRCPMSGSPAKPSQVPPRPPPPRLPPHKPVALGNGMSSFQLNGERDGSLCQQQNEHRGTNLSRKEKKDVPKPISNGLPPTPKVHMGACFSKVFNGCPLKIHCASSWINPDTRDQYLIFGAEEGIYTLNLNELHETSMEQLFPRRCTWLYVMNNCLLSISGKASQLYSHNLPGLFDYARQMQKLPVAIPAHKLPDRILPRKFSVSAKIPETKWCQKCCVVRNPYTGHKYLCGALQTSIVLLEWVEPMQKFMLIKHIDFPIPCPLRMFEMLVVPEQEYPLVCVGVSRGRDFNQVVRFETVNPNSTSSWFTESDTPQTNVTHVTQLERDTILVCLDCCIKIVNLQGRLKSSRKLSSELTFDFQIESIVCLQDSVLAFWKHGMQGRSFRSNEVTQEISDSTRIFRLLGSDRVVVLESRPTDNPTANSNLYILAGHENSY

NUAK1 = target: T3, NUAK1 (Homo sapiens, UniProt O60285)
T3 sequence (O60285 1-661): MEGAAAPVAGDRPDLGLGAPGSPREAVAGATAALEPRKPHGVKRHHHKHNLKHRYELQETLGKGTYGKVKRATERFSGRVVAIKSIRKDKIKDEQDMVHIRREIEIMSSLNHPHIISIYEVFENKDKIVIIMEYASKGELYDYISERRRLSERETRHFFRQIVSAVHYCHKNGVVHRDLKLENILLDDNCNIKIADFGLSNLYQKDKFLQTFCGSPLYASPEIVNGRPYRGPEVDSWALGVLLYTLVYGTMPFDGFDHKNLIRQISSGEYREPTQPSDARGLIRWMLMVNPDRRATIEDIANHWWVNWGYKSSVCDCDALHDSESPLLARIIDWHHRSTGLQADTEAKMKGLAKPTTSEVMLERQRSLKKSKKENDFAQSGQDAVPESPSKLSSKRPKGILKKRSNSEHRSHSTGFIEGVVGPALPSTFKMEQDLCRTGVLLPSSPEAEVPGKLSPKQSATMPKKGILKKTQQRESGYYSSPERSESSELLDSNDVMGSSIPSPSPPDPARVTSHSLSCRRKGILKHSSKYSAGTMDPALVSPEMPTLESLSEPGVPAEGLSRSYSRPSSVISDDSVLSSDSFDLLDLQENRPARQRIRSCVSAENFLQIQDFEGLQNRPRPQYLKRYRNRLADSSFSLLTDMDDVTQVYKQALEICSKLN

PHK = test system: PHK
CK1γ2 = CK1γ2 (Homo sapiens, UniProt P78368)
Sequence of CK1γ2 (P78368 whole entry): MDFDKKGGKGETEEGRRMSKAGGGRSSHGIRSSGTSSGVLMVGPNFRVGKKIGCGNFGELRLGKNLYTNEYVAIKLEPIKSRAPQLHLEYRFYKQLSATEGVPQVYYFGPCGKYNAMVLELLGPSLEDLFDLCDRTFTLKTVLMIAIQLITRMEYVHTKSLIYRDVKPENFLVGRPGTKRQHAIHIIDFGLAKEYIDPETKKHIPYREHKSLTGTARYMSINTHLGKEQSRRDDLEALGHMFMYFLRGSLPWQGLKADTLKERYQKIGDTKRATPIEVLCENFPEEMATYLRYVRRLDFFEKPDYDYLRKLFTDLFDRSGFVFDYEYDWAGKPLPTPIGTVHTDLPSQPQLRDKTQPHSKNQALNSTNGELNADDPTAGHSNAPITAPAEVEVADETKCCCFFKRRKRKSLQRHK

PAK6 = PAK6 (Homo sapiens, UniProt Q9NQU5); conditions: read-out: Remaining protein kinase activity
Sequence of PAK6 (Q9NQU5 whole entry): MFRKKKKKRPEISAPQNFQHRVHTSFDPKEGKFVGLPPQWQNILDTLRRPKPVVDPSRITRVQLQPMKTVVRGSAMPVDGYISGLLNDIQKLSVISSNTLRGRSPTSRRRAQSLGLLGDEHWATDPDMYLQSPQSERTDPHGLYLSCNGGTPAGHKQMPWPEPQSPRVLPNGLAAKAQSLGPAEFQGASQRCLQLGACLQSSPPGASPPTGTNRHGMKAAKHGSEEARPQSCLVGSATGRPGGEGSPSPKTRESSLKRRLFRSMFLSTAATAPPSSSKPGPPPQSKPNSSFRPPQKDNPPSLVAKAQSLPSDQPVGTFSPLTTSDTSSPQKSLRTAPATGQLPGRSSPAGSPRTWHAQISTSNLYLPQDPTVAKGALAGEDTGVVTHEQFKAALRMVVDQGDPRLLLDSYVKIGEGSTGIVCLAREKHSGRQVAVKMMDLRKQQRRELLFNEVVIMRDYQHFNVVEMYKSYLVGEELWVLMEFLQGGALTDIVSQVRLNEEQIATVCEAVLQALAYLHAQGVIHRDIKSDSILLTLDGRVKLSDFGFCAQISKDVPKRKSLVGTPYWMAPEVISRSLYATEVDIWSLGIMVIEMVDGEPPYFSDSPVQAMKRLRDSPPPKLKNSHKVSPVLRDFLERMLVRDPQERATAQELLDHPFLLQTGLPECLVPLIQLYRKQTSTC

IRR = IRR (Homo sapiens, UniProt P14616); conditions: read-out: Remaining protein kinase activity
Sequence of IRR (P14616 27-1297): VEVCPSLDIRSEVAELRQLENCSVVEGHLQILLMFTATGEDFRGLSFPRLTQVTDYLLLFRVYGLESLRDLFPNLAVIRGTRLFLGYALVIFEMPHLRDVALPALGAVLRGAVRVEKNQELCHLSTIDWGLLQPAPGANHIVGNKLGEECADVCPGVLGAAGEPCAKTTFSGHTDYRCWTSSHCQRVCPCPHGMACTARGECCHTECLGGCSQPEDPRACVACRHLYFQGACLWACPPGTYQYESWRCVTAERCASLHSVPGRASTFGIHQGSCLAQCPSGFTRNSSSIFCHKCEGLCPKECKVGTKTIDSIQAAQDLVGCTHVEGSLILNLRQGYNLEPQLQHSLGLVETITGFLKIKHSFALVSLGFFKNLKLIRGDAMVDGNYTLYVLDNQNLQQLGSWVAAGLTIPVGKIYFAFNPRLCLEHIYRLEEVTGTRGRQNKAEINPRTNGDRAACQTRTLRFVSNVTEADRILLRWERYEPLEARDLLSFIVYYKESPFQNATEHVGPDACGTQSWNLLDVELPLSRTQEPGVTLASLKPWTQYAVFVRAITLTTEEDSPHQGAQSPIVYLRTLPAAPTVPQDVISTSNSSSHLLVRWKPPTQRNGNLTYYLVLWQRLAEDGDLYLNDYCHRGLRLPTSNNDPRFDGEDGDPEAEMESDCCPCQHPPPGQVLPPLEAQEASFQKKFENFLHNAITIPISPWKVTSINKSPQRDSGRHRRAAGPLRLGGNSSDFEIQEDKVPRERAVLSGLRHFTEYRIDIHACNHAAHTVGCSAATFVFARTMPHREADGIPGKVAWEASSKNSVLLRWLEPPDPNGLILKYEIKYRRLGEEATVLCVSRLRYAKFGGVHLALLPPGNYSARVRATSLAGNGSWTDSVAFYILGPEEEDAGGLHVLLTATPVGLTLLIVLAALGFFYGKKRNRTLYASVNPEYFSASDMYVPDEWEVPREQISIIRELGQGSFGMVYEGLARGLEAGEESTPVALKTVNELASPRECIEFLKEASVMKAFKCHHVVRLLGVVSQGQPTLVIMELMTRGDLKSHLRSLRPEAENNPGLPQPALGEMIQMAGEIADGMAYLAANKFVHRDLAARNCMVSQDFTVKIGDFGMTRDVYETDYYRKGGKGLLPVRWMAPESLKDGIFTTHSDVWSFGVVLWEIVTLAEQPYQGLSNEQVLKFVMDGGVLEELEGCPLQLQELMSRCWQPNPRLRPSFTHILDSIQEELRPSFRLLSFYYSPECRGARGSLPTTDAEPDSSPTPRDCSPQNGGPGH

HIPK2 = HIPK2 (Homo sapiens, UniProt Q9H2X6); conditions: read-out: Remaining protein kinase activity
Sequence of HIPK2 (Q9H2X6 whole entry): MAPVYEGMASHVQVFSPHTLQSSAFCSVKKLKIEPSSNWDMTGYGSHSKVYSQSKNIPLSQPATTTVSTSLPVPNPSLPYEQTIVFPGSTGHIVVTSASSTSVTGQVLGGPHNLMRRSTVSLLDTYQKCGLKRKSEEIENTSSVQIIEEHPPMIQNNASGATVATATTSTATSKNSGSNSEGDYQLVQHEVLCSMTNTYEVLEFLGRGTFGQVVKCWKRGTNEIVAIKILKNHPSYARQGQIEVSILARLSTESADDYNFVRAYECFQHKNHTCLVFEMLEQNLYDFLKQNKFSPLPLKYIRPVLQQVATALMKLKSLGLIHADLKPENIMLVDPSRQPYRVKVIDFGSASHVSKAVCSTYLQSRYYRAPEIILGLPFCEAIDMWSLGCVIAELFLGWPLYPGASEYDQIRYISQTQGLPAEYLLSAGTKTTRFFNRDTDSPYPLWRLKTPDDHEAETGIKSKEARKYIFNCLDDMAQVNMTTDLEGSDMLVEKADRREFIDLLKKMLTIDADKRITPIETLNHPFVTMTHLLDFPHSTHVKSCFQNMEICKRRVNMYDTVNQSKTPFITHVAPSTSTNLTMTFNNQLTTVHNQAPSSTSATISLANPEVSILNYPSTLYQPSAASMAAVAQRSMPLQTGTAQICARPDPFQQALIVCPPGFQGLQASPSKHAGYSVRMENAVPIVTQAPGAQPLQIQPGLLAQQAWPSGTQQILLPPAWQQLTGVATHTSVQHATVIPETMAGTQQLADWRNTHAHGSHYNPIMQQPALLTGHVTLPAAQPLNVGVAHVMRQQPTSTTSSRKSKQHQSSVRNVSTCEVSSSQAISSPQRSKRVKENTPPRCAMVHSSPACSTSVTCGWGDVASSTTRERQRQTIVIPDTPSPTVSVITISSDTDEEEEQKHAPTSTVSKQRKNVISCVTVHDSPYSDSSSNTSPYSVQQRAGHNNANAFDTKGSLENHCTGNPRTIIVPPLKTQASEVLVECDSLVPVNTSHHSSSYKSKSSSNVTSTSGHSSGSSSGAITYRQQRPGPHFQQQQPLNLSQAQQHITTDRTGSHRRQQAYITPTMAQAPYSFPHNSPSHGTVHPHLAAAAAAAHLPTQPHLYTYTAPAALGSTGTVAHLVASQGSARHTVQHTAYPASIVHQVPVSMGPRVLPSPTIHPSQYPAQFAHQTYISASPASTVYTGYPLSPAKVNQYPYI

STK33 = STK33 (Homo sapiens, UniProt Q9BYT3); conditions: read-out: Remaining protein kinase activity
Sequence of STK33 (Q9BYT3 whole entry): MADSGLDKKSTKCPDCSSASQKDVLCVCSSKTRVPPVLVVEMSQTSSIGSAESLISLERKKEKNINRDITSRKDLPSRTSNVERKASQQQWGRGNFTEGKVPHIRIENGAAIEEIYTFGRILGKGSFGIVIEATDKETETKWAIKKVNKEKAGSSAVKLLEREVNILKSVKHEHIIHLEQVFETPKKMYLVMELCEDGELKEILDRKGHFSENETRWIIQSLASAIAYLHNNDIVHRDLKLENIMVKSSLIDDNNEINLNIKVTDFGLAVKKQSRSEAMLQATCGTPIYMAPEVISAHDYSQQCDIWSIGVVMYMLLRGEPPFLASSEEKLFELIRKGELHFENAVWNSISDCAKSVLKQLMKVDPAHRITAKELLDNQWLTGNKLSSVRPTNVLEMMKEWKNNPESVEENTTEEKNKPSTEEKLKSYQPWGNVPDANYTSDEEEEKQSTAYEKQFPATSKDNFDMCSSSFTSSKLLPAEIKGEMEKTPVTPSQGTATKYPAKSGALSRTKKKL

MSK1 = MSK1 (Homo sapiens, UniProt O75582); conditions: read-out: Remaining protein kinase activity
Sequence of MSK1 (O75582 whole entry): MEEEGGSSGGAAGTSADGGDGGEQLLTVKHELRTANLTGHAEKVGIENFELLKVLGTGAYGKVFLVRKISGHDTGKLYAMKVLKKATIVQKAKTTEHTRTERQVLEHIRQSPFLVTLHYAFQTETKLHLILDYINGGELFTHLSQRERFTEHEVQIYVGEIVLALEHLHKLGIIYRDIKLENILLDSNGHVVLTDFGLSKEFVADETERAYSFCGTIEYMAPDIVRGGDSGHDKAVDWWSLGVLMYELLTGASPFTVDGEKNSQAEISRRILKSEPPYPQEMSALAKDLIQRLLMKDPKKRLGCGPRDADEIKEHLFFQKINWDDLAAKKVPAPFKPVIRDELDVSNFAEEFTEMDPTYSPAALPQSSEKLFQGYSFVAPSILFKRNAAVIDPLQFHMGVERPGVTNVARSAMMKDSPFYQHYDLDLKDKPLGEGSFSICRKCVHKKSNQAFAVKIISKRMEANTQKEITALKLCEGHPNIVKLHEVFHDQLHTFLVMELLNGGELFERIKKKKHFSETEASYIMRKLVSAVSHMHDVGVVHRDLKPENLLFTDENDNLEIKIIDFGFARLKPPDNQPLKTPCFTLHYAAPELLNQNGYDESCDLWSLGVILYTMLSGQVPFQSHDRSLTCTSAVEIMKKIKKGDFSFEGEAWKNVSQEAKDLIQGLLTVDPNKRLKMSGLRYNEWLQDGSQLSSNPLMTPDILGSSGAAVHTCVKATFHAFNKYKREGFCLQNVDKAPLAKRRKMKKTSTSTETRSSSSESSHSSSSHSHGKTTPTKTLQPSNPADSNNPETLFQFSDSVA

`COc1ccc2sc(-c3cncc(N)c3)nc2c1` [compound 1, 5-(5-Methoxybenzo[d]thiazol-2-yl)pyridin-3-amine] gave a remaining activity at 1 µM (MAPKAP-K3; MAPKAP-K3, 1 μM) of 115%, a remaining activity at 100 µM (MAPKAP-K3; MAPKAP-K3, 100 μM) of 74% and a remaining activity at 1 µM (p38g MAPK; p38g MAPK, 1 μM) of 110%. The remaining activity at 100 µM (p38g MAPK; p38g MAPK, 100 μM) was 37%, the “Remaining protein kinase activity” value (MAP4K3; 1 μM) was 98% and the “Remaining protein kinase activity” value (MAP4K3; 100 μM) was 22%. The “Remaining protein kinase activity” value (NUAK1; 1 μM) was 112%, the “Remaining protein kinase activity” value (NUAK1; 100 μM) was 35% and the “Remaining protein kinase activity” value (PHK; 1 μM) was 101%. For the same compound, the “Remaining protein kinase activity” value (PHK; 100 μM) was 52%, the “Remaining protein kinase activity” value (CK1γ2; 1 μM) was 108% and the “Remaining protein kinase activity” value (CK1γ2; 100 μM) was 24%. The remaining activity at 1 µM (PAK6; PAK6, 1 μM) was 108%, the remaining activity at 100 µM (PAK6; PAK6, 100 μM) was 80% and the remaining activity at 1 µM (IRR; IRR, 1 μM) was 113%. The remaining activity at 100 µM (IRR; IRR, 100 μM) was 77%, the remaining activity at 1 µM (HIPK2; HIPK2, 1 μM) was 79% and the remaining activity at 100 µM (HIPK2; HIPK2, 100 μM) was 10%. For the same compound, the remaining activity at 1 µM (STK33; STK33, 1 μM) was 111%, the remaining activity at 100 µM (STK33; STK33, 100 μM) was 57% and the remaining activity at 1 µM (MSK1; MSK1, 1 μM) was 109%. The remaining activity at 100 µM (MSK1; MSK1, 100 μM) was 60%.
`COc1ccc2sc(-c3cncc(NC(C)=O)c3)nc2c1` [PST-001, N-(5-(5-Methoxybenzo[d]thiazol-2-yl)pyridin-3-yl)acetamide] gave a remaining activity at 1 µM (MAPKAP-K3) of 115%, a remaining activity at 100 µM (MAPKAP-K3) of 113% and a remaining activity at 1 µM (p38g MAPK) of 125%. The remaining activity at 100 µM (p38g MAPK) was 105%, the “Remaining protein kinase activity” value (MAP4K3; 1 μM) was 111% and the “Remaining protein kinase activity” value (MAP4K3; 100 μM) was 94%. The “Remaining protein kinase activity” value (NUAK1; 1 μM) was 130%, the “Remaining protein kinase activity” value (PHK; 100 μM) was 83% and the “Remaining protein kinase activity” value (CK1γ2; 1 μM) was 114%. For the same compound, the “Remaining protein kinase activity” value (CK1γ2; 100 μM) was 101%, the remaining activity at 1 µM (PAK6) was 112% and the remaining activity at 100 µM (PAK6) was 113%. For the same compound, the remaining activity at 1 µM (IRR) was 117%, the remaining activity at 100 µM (IRR) was 120% and the remaining activity at 1 µM (HIPK2) was 90%. For the same compound, the remaining activity at 100 µM (HIPK2) was 77%, the remaining activity at 1 µM (STK33) was 113% and the remaining activity at 100 µM (STK33) was 112%. It also gave a remaining activity at 1 µM (MSK1) of 104% and a remaining activity at 100 µM (MSK1) of 64%.
